Measured values reported in patent publication US8283353B2, “Fused ring compound and use thereof” (Takeda Pharmaceutical Company Limited, priority 2009, dated 2012).

How the values were obtained:
human AT1 receptor = molecular target: T1, human AT1 receptor (Homo sapiens, UniProt P30556); assay: AT1 receptor antagonistic activity: [125I]-angiotensin II binding assay on human AT1 receptor-expressing CHO-K1 cellular membrane fraction; details: 22.5 pM [125I]-angiotensin II, 1 hr room temperature
T1 construct: expressed in transfected cells; membrane fraction
T1 sequence (P30556 1-359): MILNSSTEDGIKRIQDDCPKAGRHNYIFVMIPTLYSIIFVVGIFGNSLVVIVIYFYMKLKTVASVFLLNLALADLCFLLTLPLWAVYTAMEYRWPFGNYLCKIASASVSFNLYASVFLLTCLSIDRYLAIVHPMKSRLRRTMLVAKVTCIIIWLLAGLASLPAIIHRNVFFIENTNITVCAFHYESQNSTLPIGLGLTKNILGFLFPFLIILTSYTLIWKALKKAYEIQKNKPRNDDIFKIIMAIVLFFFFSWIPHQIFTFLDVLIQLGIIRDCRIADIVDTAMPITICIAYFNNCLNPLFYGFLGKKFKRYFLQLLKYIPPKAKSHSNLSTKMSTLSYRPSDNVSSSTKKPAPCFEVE
Experimental: CHO-K1 cell (RIKEN, Japan) capable of stable expression of human AT1 receptor was cultured, recovered, suspended in homogenize buffer (10 mM NaHCO3 (pH 7.4), 5 mM EDTA, 1× Complete EDTA free) [manufactured by Roche, Switzerland], and homogenized. The homogenate was centrifuged at low-speed (900×g, 10 min, 4° C.), and the supernatant was recovered and ultracentrifuged (90,000×g, 1 hr, 4° C.). The supernatant was discarded, and the pellets were resuspended in suspension buffer (50 mM Tris (pH 7.4), 1 mM EDTA, 1× Complete EDTA free).
(9 μg) in the presence of AT1 membrane and test compound in 100 μl, (total reaction volume) of reaction buffer (50 mM Tris (pH 7.4), 10 mM MgCl2 supplemented or not supplemented with 0.3 mg/mL fatty acid-free bovine serum albumin [manufactured by Wako Pure Chemical Industries, Ltd., Japan]). The reaction mixture was incubated in 96 well polypropylene plate for 1 hr at room temperature, and the reaction was quenched by rapid filtration (96 well cell harvester) through a GF/C filter treated with wash buffer (50 mM Tris (pH 7.4)). Subsequently, the filter was washed 5 times with 0.3 mL of ice-cooled wash buffer. […] Total binding was measured in the presence of 1% DMSO and nonspecific binding was measured in the presence of […] Candesartan.

human PPARγ = molecular target: T2, human PPARγ (Homo sapiens, UniProt P37231); assay: PPARγ agonistic activity: luciferase reporter assay in PPARγ:RXRα:4ERPP/CHO-K1 cells; type: cell-based; details: CHO-K1, test compound 10^−6 M; luciferase activity of control compound X (1 μM) = 100%, non-administration group = 0%
T2 construct: expressed in transfected cells
T2 sequence (P37231 1-477 isoform P37231-2): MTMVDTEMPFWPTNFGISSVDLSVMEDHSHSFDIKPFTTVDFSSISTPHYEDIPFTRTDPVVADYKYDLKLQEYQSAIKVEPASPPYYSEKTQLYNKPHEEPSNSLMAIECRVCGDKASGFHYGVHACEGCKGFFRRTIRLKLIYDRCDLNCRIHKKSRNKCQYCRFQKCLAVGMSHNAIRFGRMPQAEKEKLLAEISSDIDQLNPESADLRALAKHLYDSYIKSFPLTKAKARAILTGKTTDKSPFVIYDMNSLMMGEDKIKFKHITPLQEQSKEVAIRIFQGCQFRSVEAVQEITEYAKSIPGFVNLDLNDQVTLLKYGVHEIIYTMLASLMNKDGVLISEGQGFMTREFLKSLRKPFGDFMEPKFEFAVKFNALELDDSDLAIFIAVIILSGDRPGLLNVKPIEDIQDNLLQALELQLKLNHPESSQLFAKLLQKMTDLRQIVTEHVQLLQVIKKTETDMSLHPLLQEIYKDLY
T2 sequence (P19793 1-462 partner): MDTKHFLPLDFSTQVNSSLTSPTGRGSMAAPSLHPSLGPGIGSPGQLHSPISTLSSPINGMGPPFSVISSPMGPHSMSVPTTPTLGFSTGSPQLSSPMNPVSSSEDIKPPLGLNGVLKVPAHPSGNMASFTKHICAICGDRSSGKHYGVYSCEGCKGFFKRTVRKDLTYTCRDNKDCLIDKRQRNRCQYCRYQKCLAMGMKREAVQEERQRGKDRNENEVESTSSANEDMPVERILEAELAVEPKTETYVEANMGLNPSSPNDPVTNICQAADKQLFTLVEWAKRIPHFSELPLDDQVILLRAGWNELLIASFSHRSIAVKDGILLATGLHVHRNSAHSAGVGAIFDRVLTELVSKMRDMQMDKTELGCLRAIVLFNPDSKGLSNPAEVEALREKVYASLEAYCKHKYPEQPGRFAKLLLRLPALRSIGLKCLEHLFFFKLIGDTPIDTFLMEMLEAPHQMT
Description: A CHO-K1 cell cultured in a 150 cm^2 cell culture flask [manufactured by Corning Costar Corporation, USA] comprising Ham's F12 medium [manufactured by INVITROGEN, USA] supplemented with 10% fetal bovine serum [manufactured by INVITROGEN, USA] was taken off by treating with 0.5 g/L trypsin-0.2 g/L EDTA (ethylenediamine tetraacetate) [manufactured by Life Technologies, Inc., USA], and then the cell was washed with PBS (Phosphate-buffered saline) [manufactured by INVITROGEN, USA], centrifuged (1000 rpm, 5 minutes) and suspended in PBS. Subsequently, DNA was introduced into the cell under the conditions shown below using GENE PULSER [manufactured by Bio-Rad Laboratories, USA].
Namely, to a cuvette having a 0.4 cm gap were added 8×10^6 cells and 10 μg of plasmid pVgRXR2-hPPARγ obtained in the above-mentioned (4) and 10 μg of reporter plasmid pGL3-4ERPP-TK neo obtained in the above-mentioned (3), which was subjected to electroporation at the voltage of 0.25 kV under the capacitance of […] Subsequently, the cell was transferred into a F12 medium comprising 10% fetal bovine serum and cultured for 24 hours, and then the cell was taken off again and centrifuged. Then, the pellet was suspended in Ham's F12 medium comprising 10% fetal bovine serum supplemented with 500 μg/ml of Geneticin [manufactured by INVITROGEN, USA] and 250 μg/ml of Zeocin [manufactured by INVITROGEN, USA]. The obtained suspension was diluted to the density of 10^4 cells/ml and inoculated in a 96-well plate [manufactured by Corning Costar Corporation, USA], which was cultured in a CO2 gas incubator at 37° C., whereby obtaining a Geneticin- and Zeocin-resistant transformant.
Subsequently, after the transformed cell line thus obtained was cultured in a 24-well plate [manufactured by Corning Costar Corporation, USA], a cell line in which expression of the luciferase was induced, i.e., PPARγ:RXRα:4ERPP/CHO-K1 cell was selected by the addition of 10 μM pioglitazone hydrochloride.
PPARγ:RXRα:4ERPP/CHO-K1 cells obtained in the above-mentioned (5) were cultured in F12 medium [manufactured by INVITROGEN, USA] containing 10% fetal bovine serum [manufactured by MOREGATE, Australia], seeded in a 96 well half-area white plate [manufactured by Corning Coster Corporation, USA] at 5×10^3 cells/well, and cultured in a CO2 incubator at 37° C. overnight.
Then, the medium was removed from the 96 well half-area white plate, hamF12 medium containing 0.1% fatty acid-free bovine serum albumin (BSA) (45 μl) and a test compound (5 μl) were added, and the mixture was cultured in the CO2 incubator at 37° C. for 1 day. After removing the medium, Picagene 7.5 [manufactured by Dai Nippon Inki, Japan] (20 μl) diluted 2-fold with HBSS (HANKS' BALANCED SALT SOLUTION) [manufactured by BIO […], USA] was added, and the mixture was stirred. Using 1420 ARVO Multilabel Counter [manufactured by PerkinElmer, USA], luciferase activity was measured. The percentage (%) was calculated from the luciferase activity of the test compound when the luciferase activity of the control compound (compound X: 5-[3-(4-{[2-(2-furyl)-5-methyl-1,3-oxazol-4-yl]methoxy}-3-methoxyphenyl)propyl]-1,3-oxazolidine-2,4-dione) (1 μM) was taken as 100% and the luciferase activity of the test compound non-administration group was taken as 0%.

Row | IC50 (human AT1 receptor) [nM] | activation at 1 µM (human PPARγ) [%] | SMILES
1 | 1.9 | 27 | CCCc1c(Cc2ccc(-c3ccccc3-c3noc(=O)[nH]3)cc2)c(=O)n([C@H]2CC[C@H](OCC(O)C(F)(F)F)CC2)c2ccnn12 (relative stereo) [Example 428, 6-{[2′-(5-oxo-4,5-dihydro-1,2,4-oxadiazol-3-yl)biphenyl-4-yl]methyl}-7-propyl-4-[trans-4-(3,3,3-trifluoro-2-hydroxypropoxy)cyclohexyl]pyrazolo[1,5-a]pyrimidin-5(4H)-one]
2 | 1.8 | 32 | CCCCc1c(Cc2ccc(-c3ccccc3-c3noc(=O)[nH]3)cc2)c(=O)n([C@H]2CC[C@H](OCC(C)O)CC2)c2ccnn12 (relative stereo) [Example 436, 7-butyl-4-[trans-4-(2-hydroxypropoxy)cyclohexyl]-6-{[2′-(5-oxo-4,5-dihydro-1,2,4-oxadiazol-3-yl)biphenyl-4-yl]methyl}pyrazolo[1,5-a]pyrimidin-5(4H)-one]
3 | 1.6 | 30 | CCCc1c(Cc2ccc(-c3ccccc3-c3noc(=O)[nH]3)cc2F)c(=O)n([C@H]2CC[C@H](OCC(C)O)CC2)c2ccnn12 (relative stereo) [Example 437, 6-{[3-fluoro-2′-(5-oxo-4,5-dihydro-1,2,4-oxadiazol-3-yl)biphenyl-4-yl]methyl}-4-[trans-4-(2-hydroxypropoxy)cyclohexyl]-7-propylpyrazolo[1,5-a]pyrimidin-5(4H)-one]
4 | 2 | 16 | CCCc1c(Cc2ccc(-c3ccccc3-c3noc(=O)[nH]3)cc2)c(=O)n([C@H]2CC[C@H](OC(C)C(C)(C)O)CC2)c2ncnn12 (single isomer, unassigned) [Example 319, 4-[trans-4-(2-hydroxy-1,2-dimethylpropoxy)cyclohexyl]-6-{[2′-(5-oxo-4,5-dihydro-1,2,4-oxadiazol-3-yl)biphenyl-4-yl]methyl}-7-propyl[1,2,4]triazolo[1,5-a]pyrimidin-5(4H)-one (retention time: long)]
5 | 1.3 | 18 | CCCc1c(Cc2ccc(-c3ccccc3-c3noc(=O)[nH]3)cc2)c(=O)n(CC(C)(C)C)c2nc(C)nn12 [Example 2, 4-(2,2-dimethylpropyl)-2-methyl-6-{[2′-(5-oxo-4,5-dihydro-1,2,4-oxadiazol-3-yl)biphenyl-4-yl]methyl}-7-propyl[1,2,4]triazolo[1,5-a]pyrimidin-5(4H)-one]
6 | 2.6 | 39 | CCCc1c(Cc2ccc(-c3ccccc3-c3noc(=O)[nH]3)cc2)c(=O)n(Cc2ccc(F)cc2)c2ncnn12 [Example 4, 4-(4-fluorobenzyl)-6-{[2′-(5-oxo-4,5-dihydro-1,2,4-oxadiazol-3-yl)biphenyl-4-yl]methyl}-7-propyl[1,2,4]triazolo[1,5-a]pyrimidin-5(4H)-one]
7 | 1.7 | 18 | CCCc1c(Cc2ccc(-c3ccccc3-c3noc(=O)[nH]3)cc2)c(=O)n(Cc2ccc(F)cc2)c2nc(C)nn12 [Example 5, 4-(4-fluorobenzyl)-2-methyl-6-{[2′-(5-oxo-4,5-dihydro-1,2,4-oxadiazol-3-yl)biphenyl-4-yl]methyl}-7-propyl[1,2,4]triazolo[1,5-a]pyrimidin-5(4H)-one]
8 | 2.4 | 26 | CCCc1c(Cc2ccc(-c3ccccc3-c3noc(=O)[nH]3)cc2)c(=O)n(Cc2ccc(CC)nc2)c2nc(C)nn12 [Example 7, 4-[(6-ethylpyridin-3-yl)methyl]-2-methyl-6-{[2′-(5-oxo-4,5-dihydro-1,2,4-oxadiazol-3-yl)biphenyl-4-yl]methyl}-7-propyl[1,2,4]triazolo[1,5-a]pyrimidin-5(4H)-one]
9 | 2.1 | 17 | CCCc1c(Cc2ccc(-c3ccccc3-c3noc(=O)[nH]3)cc2)c(=O)n(CC(C)(C)C)c2ncnn12 [Example 9, 4-(2,2-dimethylpropyl)-6-{[2′-(5-oxo-4,5-dihydro-1,2,4-oxadiazol-3-yl)biphenyl-4-yl]methyl}-7-propyl[1,2,4]triazolo[1,5-a]pyrimidin-5(4H)-one]
10 | 1.8 | 18 | CCCc1c(Cc2ccc(-c3ccccc3-c3noc(=O)[nH]3)cc2)c(=O)n(CC(=O)C(C)(C)C)c2ncnn12 [Example 10, 4-(3,3-dimethyl-2-oxobutyl)-6-{[2′-(5-oxo-4,5-dihydro-1,2,4-oxadiazol-3-yl)biphenyl-4-yl]methyl}-7-propyl[1,2,4]triazolo[1,5-a]pyrimidin-5(4H)-one]
11 | 1.2 | – | CCCCc1c(Cc2ccc(-c3ccccc3-c3noc(=O)[nH]3)cc2)c(=O)n(C2CCOC(C)C2)c2ncnn12 (stereo not drawn) [Example 161, 7-butyl-4-(2-methyltetrahydro-2H-pyran-4-yl)-6-{[2′-(5-oxo-4,5-dihydro-1,2,4-oxadiazol-3-yl)biphenyl-4-yl]methyl}[1,2,4]triazolo[1,5-a]pyrimidin-5(4H)-one]
